These results are taken from US12522576B2, “Polymorphs of D9-THC naphthoylester” (priority 2019, dated 2026).

Where two headings read alike, the source gives them in different places.

Series [1] is classed as physicochemical. Here is the method:
Powder X-Ray Diffraction (PXRD). PXRD diffractograms were acquired on a PANalytical X'Pert Pro diffractometer using Ni-filtered Cu Ka (45 kV/40 mA) radiation and a step size of 0.03° 2θ and X'celerator™ RTMS (Real Time Multi-Strip) detector. Configuration on the incidental beam side: variable divergence slits (10 mm irradiated length), 0.04 rad Soller slits, fixed anti-scatter slit (0.50 o), and 10 mm beam mask. Configuration on the diffracted beam side: variable anti-scatter slit (10 mm observed length) and 0.04 rad Soller slit. Samples were mounted flat on zero-background Si wafers.
Group D solvates converted to Form C in the solid-state at different rates, depending on the solvent included. […] No phase-pure Group D was isolated from acetone-containing solvents, indicating the unstable nature of this solvate.

Series [2] in a line: Gravimetric solubility. The series is classed as physicochemical. The settings on record: 20 °C, organic solvent or mixture, thermodynamic from solid, RT, read-out: Gravimetric Solubility at RT. On the procedure: Additional solids or solvents were added to visual solubility samples with vials less than 100 mg/mL to produce slurries at 20 and 50° C. for the subsequent equilibrium solubility assessment. The slurries were stirred at 20 and 50° C. overnight, filtered through 0.2 μm syringe filters and evaporated to dryness under reduced pressure at ambient temperature. Gravimetric solubility was calculated by dividing the dry solids residue mass (mg) by the solvent mass (g). The mg/g solubility values were then converted to mg/mL using solvent density.
The solubility of Group D acetone and DMF solvates were assessed in the corresponding solvents.

One may read the solubility as the concentration that dissolves in the medium under given conditions.

Consider `CCCCCc1cc(OC(=O)c2ccc3ccccc3c2)c2c(c1)OC(C)(C)[C@@H]1CCC(C)=C[C@@H]21` [Acetone solvate of Group D], for which the Stability of solvate result in series [1] (no phase-pure Group D isolated from acetone-containing solvents) is given as “unstable”. For the same molecule, the solubility in series [2] (solvent Acetone, Batch 7) worked out at 98 mg/mL.

Consider `CCCCCc1cc(OC(=O)c2ccc3ccccc3c2)c2c(c1)OC(C)(C)[C@@H]1CCC(C)=C[C@@H]21` [DMF solvate of Group D], for which the “Time of conversion to Form C in the solid-state” value in series [1] (ambient temperature) is listed as “overnight”. Further, in series [2] (solvent DMF, Batch 8), the solubility is 95 mg/mL.
